Test results from US8057829B2, “Methods for repelling insects using sesquiterpene hydrocarbons and their derivatives” (Sterling International Inc., priority 2008, dated 2011).

Key:
[1] = tested on: female antennae of sand fly Phlebotomus papatasi and mosquitoes Aedes aegypti, Anopheles gambiae, Anopheles stephensi; assay: GC-EAD responses of sand fly and three mosquitoes to synthetic mixtures; conditions: about 100 ng of each compound, on one or more of the sand fly or the mosquitoes, FIGS. 9 and 10
Summary of the method: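 Female antennae recorded by GC-EAD (split with FID) against synthetic mixtures with about 100 ng of each compound, 1-octen-3-ol as positive control; polar Innowax column, 50° C 2 min then 10° C/min to 240° C. Effluent in humidified air at 0.5 liter/min over severed-head preparation with Ringer-filled electrodes.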

[2] = tested on: houseflies; assay: Laboratory sticky trap bioassay of spatial repellency with egg powder attractant; format: in vivo, housefly (Musca domestica); conditions: for female house flies per trap / male house flies per trap: egg powder plus repellent; for repellency against houseflies, in words: laboratory trap bioassay with egg powder attractant
Description: Laboratory bioassay tests were carried out to investigate the efficacy of some of the EAD-active compounds described above to act as spatial repellents against several insects. The procedure for the bioassay tests is described in Example 2 below. Briefly stated, the bioassay included using egg powder (EP) as an attractant for flies, while the compound whose insect repellency was being tested was placed in proximity to the egg powder. In FIGS. 11-13, the bioassay was carried out on houseflies using devices known by the designation Trécé Pherocon® VI sticky traps.
The following lab bioassay tests were employed to illustrate the efficacy of the compounds to effectively act as spatial repellents for flies. Three sets of tests were conducted in a fly testing room (23° C., 70% RH, and 12/12 (L/D) light regime illuminated by fluorescent lights). Two sets of tests were carried out using Trécé Pherocon® VI traps with sticky inserts, which were set up on poles evenly spaced on a rotating table. The traps were ca. 1 m above a table surface, and ca. 1 m apart from each other. Two grams of egg powder in a white cap (4 cm in diameter, 0.5 cm in height) used as an attractant was put on the center of the sticky insert in the sticky trap. The potential repellent candidate chemicals were loaded into polyethylene bags, and were hung under the inner roof of the traps, 1-1.5 cm above the egg powder attractant. A control had the empty white cap and blank polyethylene bag, while the positive control had only the egg powder and an empty polyethylene bag. The test table was rotated 1.5 r.p.h. […] About 200-300 houseflies (2-3 days old) were released into the testing room for each test. Tests were normally run from 8:00 am to 5:00 pm, and the numbers of houseflies caught in each trap were counted after each test. The results of these tests are shown in FIGS. 11-13 and described above.

[3] = tested on: Aedes aegypti; assay: Y-tube olfactometer behavioral bioassay (spatial repellency); format: in vivo; conditions: for Number of mosquitoes in each arm: Blank / Number of mosquitoes in each arm: Bottom / Number of mosquitoes in each arm: Repellent: Aedes aegypti females, release rate per chemical (1-60 mg/day), 10 min; for Number of mosquitoes in each arm: Repellent: two replicates pooled; for SAI (Spatial Activity Index): Aedes aegypti, (Nc − Nt)/(Nc + Nt), −1 to 1, zero indicating no response
Summary of the method: (§1)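 Female insects (25-40 per run; mosquitoes 6-10 days old, sand flies 3-10 days) released into a CO2-baited Y-tube holding a treatment dispenser in one arm and a blank in the other; arm counts taken after 10 min at 23-25° C. Arms swapped in a repeat run; pooled data tested by χ2 (df=1).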

[4] = tested on: Anopheles stephensi; assay: as above; format: in vivo; conditions: for Number of mosquitoes in each arm: Repellent / Number of mosquitoes in each arm: Blank / Number of mosquitoes in each arm: Bottom: Anopheles stephensi females; for SAI (Spatial Activity Index): Anopheles stephensi
Summary of the method: as §1

[5] = tested on: Phlebotomus papatasi; assay: as above; format: in vivo; conditions: for SAI (Spatial Activity Index): Phlebotomus papatasi; for Number of mosquitoes in each arm: Repellent: Phlebotomus papatasi (sand fly) females, release rate per chemical (1-35 mg/day); for Number of mosquitoes in each arm: Repellent / Number of mosquitoes in each arm: Blank / Number of mosquitoes in each arm: Bottom: 10 min; for Number of mosquitoes in each arm: Blank / Number of mosquitoes in each arm: Bottom: Phlebotomus papatasi females, release rate per chemical
Summary of the method: as §1

[6] = FIG. 13, egg powder alone 76 females
[7] = FIG. 13, egg powder alone 95 males
[8] = release rate per chemical (1-60 mg/day; β-Caryophyllene 10 mg/day), 10 min
[9] = release rate per chemical (β-Caryophyllene 10 mg/day), 10 min
[10] = FIG. 12, egg powder alone 35 females
[11] = FIG. 12, egg powder alone 68 males

For C=C1C2CCC3[C@H]2C(C)(C)CCC[C@]13C (single isomer, unassigned; (+)) [(+)-Longifolene], the GC-EAD antennal activity [1] was “antennally active”, the “female house flies per trap” value [2, 6] was 4 house flies per trap and the “male house flies per trap” value [2, 7] was “one”. For the same compound, the “repellency against houseflies, in words” value [2] was “strongest repellent against houseflies”, the “Number of mosquitoes in each arm: Blank” value [3] was 20 and the “Number of mosquitoes in each arm: Bottom” value [3] was 37. The “Number of mosquitoes in each arm: Repellent” value (“Number … Repellent” for short) [3] was 5, the “SAI (Spatial Activity Index)” value [3] was 0.60 and the “Number … Repellent” value [4, 8] was 9. The “Number of mosquitoes in each arm: Blank” value [4, 9] was 23, the “Number of mosquitoes in each arm: Bottom” value [4, 9] was 29 and the “SAI (Spatial Activity Index)” value ([4]; β-Caryophyllene 10 mg/day) was 0.44. For the same compound, the “SAI (Spatial Activity Index)” value [5] was 0.55, the “Number … Repellent” value [5] was 5 and the “Number of mosquitoes in each arm: Blank” value [5] was 17. For the same compound, the “Number of mosquitoes in each arm: Bottom” value [5] was 41.
In the case of C=C1CC/C=C(/C)CC[C@@H]2[C@@H]1CC2(C)C [Isocaryophyllene, isocaryophyllene], the GC-EAD antennal activity [1] is reported as “antennally active”, the “female house flies per trap” value [2, 10] is reported as 15 house flies per trap and the “male house flies per trap” value [2, 11] is reported as 14 house flies per trap. The “Number of mosquitoes in each arm: Blank” value [3] was 35, the “Number of mosquitoes in each arm: Bottom” value [3] was 31 and the “Number … Repellent” value [3] was 8. For the same compound, the “SAI (Spatial Activity Index)” value [3] was 0.63, the “Number … Repellent” value [4, 8] was 8 and the “Number of mosquitoes in each arm: Blank” value [4, 9] was 21. For the same compound, the “Number of mosquitoes in each arm: Bottom” value [4, 9] was 26, the “SAI (Spatial Activity Index)” value ([4]; β-Caryophyllene 10 mg/day) was 0.45 and the “SAI (Spatial Activity Index)” value [5] was 0.23. For the same compound, the “Number … Repellent” value [5] was 40, the “Number of mosquitoes in each arm: Blank” value [5] was 64 and the “Number of mosquitoes in each arm: Bottom” value [5] was 34.
C=C1CC/C=C(\C)CC[C@@H]2[C@@H]1CC2(C)C [β-Caryophyllene, β-caryophyllene] was tested, and the GC-EAD antennal activity [1] was “antennally active”, the “number of house flies per trap” value ([2]; egg powder attractant plus repellent, FIG. 11, egg powder alone 44) was 3.5 house flies per trap and the “female house flies per trap” value [2, 10] was 12 house flies per trap. The “male house flies per trap” value [2, 11] was “six”, the “female house flies per trap” value [2, 6] was 10 house flies per trap and the “male house flies per trap” value [2, 7] was “two”. The “repellency against houseflies, in words” value [2] was “effective housefly repellents”, the “Number of mosquitoes in each arm: Blank” value [3] was 20 and the “Number of mosquitoes in each arm: Bottom” value [3] was 40. The “Number … Repellent” value [3] was 6, the “SAI (Spatial Activity Index)” value [3] was 0.54 and the “Number of mosquitoes in each arm: Blank” value ([4]; release rate 35 mg/day, PE-Bag) was 22. For the same compound, the “Number of mosquitoes in each arm: Bottom” value ([4]; release rate 35 mg/day, PE-Bag) was 43, the “Number … Repellent” value ([4]; release rate 35 mg/day, PE-Bag) was 5 and the “Number … Repellent” value [4, 8] was 19. For the same compound, the “Number of mosquitoes in each arm: Blank” value [4, 9] was 23, the “Number of mosquitoes in each arm: Bottom” value [4, 9] was 26 and the “SAI (Spatial Activity Index)” value ([4]; release rate 35 mg/day) was 0.63. The “SAI (Spatial Activity Index)” value ([4]; β-Caryophyllene 10 mg/day) was 0.10, the “SAI (Spatial Activity Index)” value [5] was 0.57 and the “Number … Repellent” value [5] was 9. For the same compound, the “Number of mosquitoes in each arm: Blank” value [5] was 33 and the “Number of mosquitoes in each arm: Bottom” value [5] was 25.
